Data: patent publication US20240301319A1, “PERFUMING COMPOSITIONS” (FIRMNICH SA, priority 2017, published 2024)

Experiments:
[1] = Volatility of perfuming compounds (Tables 4 to 10), with top/middle/bottom note type; assay type: physicochemical
Method in brief: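 Note type follows from air volatility (μg/l): bottom 49–0.1, middle 99–50, top 70,000–100. Compounds are listed within watery, green, fruity, citrus, sweet, gourmand and woody families.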

[2] = Odor threshold and odor value of perfuming compounds (Tables 4 to 10)
[3] = note type (Top/Middle/Bottom) by volatility, perfuming compounds having a green note
[4] = perfuming compounds having a green note
[5] = Table 10, perfuming compounds having a woody note, note type by volatility
[6] = Table 7, citrus note, top, middle or bottom note
[7] = Table 7, citrus note, equals volatility divided by odor threshold
[8] = Table 6, perfuming compounds having a fruity note
[9] = Table 6, perfuming compounds having a fruity note, note type by volatility
[10] = Table 8, perfuming compounds having a sweet note
[11] = Table 8, perfuming compounds having a sweet note, note type by volatility
[12] = Table 9, perfuming compounds having a gourmand note, note type by volatility

CC1CCCC2(C)CCCCC12O (racemic)
Type [1, 3]: Top
Volatility (μg/l air) [1, 4]: 330.48 μg/l air
Odor Threshold (μg/l air) [2, 4]: 5.32E−06 μg/l air

COc1ccc(OC)c(C(C)(C)C)c1 [2-TERT-BUTYL-1,4-DIMETHOXYBENZENE]
Type [1, 5]: Middle
Volatility ([1]; Table 10, woody note): 82.95 μg/l air
Odor Threshold ([2]; Table 10, woody note): 1.65E−02 μg/l air

CCOc1ccc2ccccc2c1 [2-ETHOXYNAPHTHALENE]
Volatility (μg/l air) ([1]; Table 7, citrus note): 22.67 μg/l air
Type [1, 6]: Bottom
Odor Threshold (μg/l air) ([2]; Table 7, citrus note): 3.57E−03 μg/l air
Odor Value [2, 7]: 6.35E+03

CCC/C=C/CO [(E)-2-HEXEN-1-OL]
Type [1, 3]: Top
Volatility (μg/l air) [1, 4]: 3752.17 μg/l air
Odor Threshold (μg/l air) [2, 4]: 1.29E−01 μg/l air

CCC(C)C(=O)OC(C)C (racemic) [(+−)-ISOPROPYL 2-METHYLBUTANOATE]
Volatility [1, 8]: 51367.63 μg/l air
Type [1, 9]: TOP (perfuming compounds having a volatility ranging from 70,000 to 100 μg/l in air are referred to as “top notes”)
Volatility (μg/l air) ([1]; Table 7, citrus note): 51367.63 μg/l air
Type [1, 6]: Top
Odor Threshold (μg/l air) ([2]; Table 7, citrus note): 8.42E−03 μg/l air
Odor Value [2, 7]: 6.10E+06

CCCC(=O)OCC [ETHYL BUTANOATE]
Volatility [1, 8]: 142519.74 μg/l air
Type [1, 9]: TOP (perfuming compounds having a volatility ranging from 70,000 to 100 μg/l in air are referred to as “top notes”)
Type [1, 3]: Top
Volatility (μg/l air) [1, 4]: 142519.74 μg/l air
Odor Threshold (μg/l air) [2, 4]: 3.68E−04 μg/l air

CC/C=C\CCOC(=O)OC [(3Z)-hex-3-en-1-yl methyl carbonate]
Volatility [1, 8]: 1506.33 μg/l air
Type [1, 9]: TOP (perfuming compounds having a volatility ranging from 70,000 to 100 μg/l in air are referred to as “top notes”)
Type [1, 3]: Top
Volatility (μg/l air) [1, 4]: 1506.33 μg/l air
Odor Threshold (μg/l air) [2, 4]: 4.58E−02 μg/l air

CC(C=O)Cc1ccc2c(c1)OCO2 (racemic) [(+−)-3-(1,3-BENZODIOXOL-5-YL)-2-METHYLPROPANAL]
Volatility (μg/l air) ([1]; Table 4, watery note): 3.57 μg/l air
Type ([1]; Table 4, watery note, top, middle or bottom note): bottom (perfuming compounds having a volatility ranging from 49 to 0.1 μg/l in air are referred to as “bottom notes”)
Odor Threshold (μg/l air) ([2]; Table 4, watery note): 2.23E−04 μg/l air
Odor Value ([2]; Table 4, watery note, equals volatility divided by odor threshold): 1.60E+04

CC1CC(C)(c2ccccc2)OC(C)O1 (stereo not drawn)
Volatility [1, 8]: 113.83 μg/l air
Type [1, 9]: TOP (perfuming compounds having a volatility ranging from 70,000 to 100 μg/l in air are referred to as “top notes”)
Odor Threshold [2, 8]: 7.82E−03 μg/l air
Odor Value [2, 8]: 1.46E+04

CCC(=O)OCC(C)(C)OC(C)C1CCCC(C)(C)C1 (single isomer, unassigned; (+))
Volatility [1, 8]: 4.39 μg/l air
Type [1, 9]: Bottom
Odor Threshold [2, 8]: 3.69E−04 μg/l air
Odor Value [2, 8]: 1.19E+04

COC(=O)Cc1ccccc1 [METHYL PHENYLACETATE]
Volatility [1, 8]: 555.30 μg/l air
Type [1, 9]: TOP (perfuming compounds having a volatility ranging from 70,000 to 100 μg/l in air are referred to as “top notes”)
Volatility [1, 10]: 555.30 μg/l air
Type [1, 11]: Top
Volatility ([1]; Table 9, gourmand note): 555.30 μg/l air
Type [1, 12]: Top
Odor Threshold [2, 10]: 3.21E−04 μg/l air
Odor Value [2, 10]: 1.73E+06
Odor Threshold ([2]; Table 9, gourmand note): 3.21E−04 μg/l air

CC(=O)/C=C/C1=C(C)CCCC1(C)C [(3E)-4-(2,6,6-trimethyl-1-cyclohexen-1-yl)-3-buten-2-one]
Type [1, 5]: Bottom
Volatility ([1]; Table 10, woody note): 35.41 μg/l air
Odor Threshold ([2]; Table 10, woody note): 3.58E−05 μg/l air

CCOCOC1CCCCCCCCCCC1 [(ETHOXYMETHOXY)CYCLODODECANE]
Type [1, 5]: Bottom
Volatility ([1]; Table 10, woody note): 6.63 μg/l air
Odor Threshold ([2]; Table 10, woody note): 8.90E−02 μg/l air

COc1cccc(OC)c1O [2,6-DIMETHOXYPHENOL]
Volatility [1, 10]: 19.23 μg/l air
Type [1, 11]: Bottom
Volatility ([1]; Table 9, gourmand note): 19.23 μg/l air
Type [1, 12]: Bottom
Odor Threshold [2, 10]: 8.01E−06 μg/l air
Odor Value [2, 10]: 2.40E+06
Odor Threshold ([2]; Table 9, gourmand note): 8.01E−06 μg/l air

CC1=CCC2C(C1)C1CC2C2(C1)OC2C (racemic)
Volatility [1, 8]: 36.76 μg/l air
Type [1, 9]: Bottom
Type [1, 3]: Bottom
Volatility (μg/l air) [1, 4]: 36.76 μg/l air
Odor Threshold [2, 8]: 9.93E−04 μg/l air
Odor Value [2, 8]: 3.70E+04
Odor Threshold (μg/l air) [2, 4]: 9.93E−04 μg/l air

CCCC(=O)OC(C)(C)Cc1ccccc1 [1,1-DIMETHYL-2-PHENYLETHYL BUTANOATE]
Volatility [1, 8]: 34.65 μg/l air
Type [1, 9]: Bottom
Volatility [1, 10]: 34.65 μg/l air
Type [1, 11]: Bottom
Volatility ([1]; Table 9, gourmand note): 34.65 μg/l air
Type [1, 12]: Bottom
Odor Threshold [2, 8]: 2.68E−02 μg/l air
Odor Value [2, 8]: 1.29E+03
Odor Threshold [2, 10]: 2.68E−02 μg/l air
Odor Value [2, 10]: 1.29E+03
Odor Threshold ([2]; Table 9, gourmand note): 2.68E−02 μg/l air
